Earlier results as cited in US10463731B2, “Adjuvant combinations comprising alpha-galactosylceramide or iGb3, CD40 agonists and antigen” (IMMURX, INC., priority 2007, dated 2019).

System: tumors
Conditions: monotherapy, mice

CCCCCCCCCCCCCCCCCCCCCCCCCC(=O)N[C@@H](CO[C@H]1O[C@H](CO)[C@H](O)[C@H](O)[C@H]1O)[C@H](O)[C@H](O)CCCCCCCCCCCCCC [α-Gal-Cer, alpha-galactosylceramide]
enhancement of immunity to tumors: limited success
